Measured values taken from ChEMBL document CHEMBL3351955, “Identification of potent and selective hydantoin inhibitors of aggrecanase-1 and aggrecanase-2 that are efficacious in both chemical and surgical models of osteoarthritis” (J Med Chem, 2014).
pIC50: −log10 of the molar value.

What was measured:
Stromelysin-1 = Stromelysin-1 (Homo sapiens, UniProt P08254); assay: Inhibition of human MMP3 using Mca-PQG1 peptide substrate assessed as substrate cleavage after 2 to 4 hrs
[1] = target: 72 kDa type IV collagenase (Homo sapiens, UniProt P08253); assay: Inhibition of human MMP2 using Mca-PQG1 peptide substrate assessed as substrate cleavage after 2 to 4 hrs
Collagenase 3 = Collagenase 3 (Homo sapiens, UniProt P45452); assay: Inhibition of human MMP13 using Mca-PQG1 peptide substrate assessed as substrate cleavage after 2 to 4 hrs
[2] = Plasma concentration in rat at 10 mg/kg, po after 2 hrs; format: ADME, organism-based; parameters: dose 10 mg/kg, route oral
[3] = Plasma concentration in rat at 10 mg/kg, po after 8 hrs; format: ADME, organism-based; parameters: dose 10 mg/kg, route oral
[4] = target: T1, A disintegrin and metalloproteinase with thrombospondin motifs 5 (Homo sapiens, UniProt Q9UNA0); assay: Inhibition of human ADAMTS-5 using VQTVTWPDMELPLPRNITEGEARGSVILTVKPIFEVSPSPLKG peptide substrate by AlphaScreen assay in presence of 50% rat plasma
T1 sequence (Q9UNA0 whole entry): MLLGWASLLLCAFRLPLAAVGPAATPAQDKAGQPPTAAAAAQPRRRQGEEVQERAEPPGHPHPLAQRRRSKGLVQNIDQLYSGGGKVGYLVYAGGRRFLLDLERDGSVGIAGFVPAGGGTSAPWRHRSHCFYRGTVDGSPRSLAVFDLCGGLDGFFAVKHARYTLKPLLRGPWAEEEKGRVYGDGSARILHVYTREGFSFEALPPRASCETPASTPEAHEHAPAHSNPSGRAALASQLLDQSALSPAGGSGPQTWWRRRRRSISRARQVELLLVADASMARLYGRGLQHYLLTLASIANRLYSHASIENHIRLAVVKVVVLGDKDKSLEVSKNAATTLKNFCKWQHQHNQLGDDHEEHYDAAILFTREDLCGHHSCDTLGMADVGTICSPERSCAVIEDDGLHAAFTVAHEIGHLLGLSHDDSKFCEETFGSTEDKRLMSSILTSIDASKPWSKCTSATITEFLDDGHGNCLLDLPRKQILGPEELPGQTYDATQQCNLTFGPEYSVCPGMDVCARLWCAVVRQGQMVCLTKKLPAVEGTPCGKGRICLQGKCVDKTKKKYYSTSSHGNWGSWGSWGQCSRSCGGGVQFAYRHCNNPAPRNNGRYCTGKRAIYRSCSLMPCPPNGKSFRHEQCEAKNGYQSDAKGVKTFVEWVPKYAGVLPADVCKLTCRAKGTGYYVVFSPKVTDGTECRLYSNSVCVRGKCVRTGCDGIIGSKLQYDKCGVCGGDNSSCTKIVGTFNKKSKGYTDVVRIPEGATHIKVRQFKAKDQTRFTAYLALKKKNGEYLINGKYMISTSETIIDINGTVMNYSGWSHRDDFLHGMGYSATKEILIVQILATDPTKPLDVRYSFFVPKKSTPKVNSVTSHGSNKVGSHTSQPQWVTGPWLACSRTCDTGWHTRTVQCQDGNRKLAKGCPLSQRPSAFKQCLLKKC

[5] = target: T2, A disintegrin and metalloproteinase with thrombospondin motifs 4 (Homo sapiens, UniProt O75173); assay: Inhibition of human ADAMTS-4 using VQTVTWPDMELPLPRNITEGEARGSVILTVKPIFEVSPSPLKG peptide substrate by AlphaScreen assay
T2 sequence (O75173 whole entry): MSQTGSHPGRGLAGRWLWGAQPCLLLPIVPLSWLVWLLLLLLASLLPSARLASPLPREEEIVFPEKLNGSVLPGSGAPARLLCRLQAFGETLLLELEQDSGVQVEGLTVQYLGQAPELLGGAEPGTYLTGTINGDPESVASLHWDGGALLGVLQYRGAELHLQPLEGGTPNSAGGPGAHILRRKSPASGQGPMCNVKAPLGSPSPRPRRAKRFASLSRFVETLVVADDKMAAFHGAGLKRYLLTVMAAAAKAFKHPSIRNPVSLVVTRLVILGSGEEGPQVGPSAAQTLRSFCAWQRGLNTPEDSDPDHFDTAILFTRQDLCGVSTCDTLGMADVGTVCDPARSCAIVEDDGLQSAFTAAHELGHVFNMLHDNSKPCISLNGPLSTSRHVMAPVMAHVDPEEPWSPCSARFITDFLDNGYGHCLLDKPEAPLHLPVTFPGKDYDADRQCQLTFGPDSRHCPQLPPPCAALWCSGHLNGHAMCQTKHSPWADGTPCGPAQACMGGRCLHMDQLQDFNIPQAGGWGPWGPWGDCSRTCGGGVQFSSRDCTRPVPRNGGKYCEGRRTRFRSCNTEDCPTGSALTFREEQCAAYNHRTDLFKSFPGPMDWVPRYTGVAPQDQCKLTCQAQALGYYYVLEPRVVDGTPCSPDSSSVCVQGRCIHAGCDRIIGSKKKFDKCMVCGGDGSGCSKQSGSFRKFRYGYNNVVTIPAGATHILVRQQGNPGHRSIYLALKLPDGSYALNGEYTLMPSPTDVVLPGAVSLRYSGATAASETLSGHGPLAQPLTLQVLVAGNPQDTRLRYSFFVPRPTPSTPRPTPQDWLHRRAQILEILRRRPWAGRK

[6] = target: Matrix metalloproteinase-14 (Homo sapiens, UniProt P50281); assay: Inhibition of human MMP14 using Mca-PQG1 peptide substrate assessed as substrate cleavage after 2 to 4 hrs
[7] = target: T1, A disintegrin and metalloproteinase with thrombospondin motifs 5; assay: Inhibition of human ADAMTS-5 using VQTVTWPDMELPLPRNITEGEARGSVILTVKPIFEVSPSPLKG peptide substrate by AlphaScreen assay
[8] = target: Disintegrin and metalloproteinase domain-containing protein 17 (Homo sapiens, UniProt P78536); assay: Inhibition of human TACE using Mca-PQG1 peptide substrate assessed as substrate cleavage after 2 to 4 hrs
[9] = Metabolic stability in rat liver microsomes assessed as compound degradation after 30 mins by LC-MS analysis; format: ADME, Microsome; conditions: read-out: Drug degradation
Cytochrome P450 3A4 = Cytochrome P450 3A4 (Homo sapiens, UniProt P08684); assay: Inhibition of human CYP3A4; format: ADME
Rattus norvegicus [10] = species: Rattus norvegicus; assay: Reduction in meniscal tear-induced osteoarthritis total joint score in chronic BID Lewis rat surgical model; format: functional, organism-based
[11] = Cmax in Sprague-Dawley rat at 10 mg/kg, po; format: ADME, organism-based; parameters: dose 10 mg/kg, route oral; conditions: in vivo
[12] = AUC in Sprague-Dawley rat at 10 mg/kg, po; format: ADME, organism-based; parameters: dose 10 mg/kg, route oral; conditions: plasma
[13] = Metabolic stability in human liver microsomes assessed as compound degradation after 30 mins by LC-MS analysis; format: ADME, Microsome; conditions: read-out: Drug degradation
[14] = Oral bioavailability in Sprague-Dawley rat; format: ADME, organism-based; conditions: in vivo
Cytochrome P450 2D6 = Cytochrome P450 2D6 (Homo sapiens, UniProt P10635); assay: Inhibition of human CYP2D6; format: ADME
Rattus norvegicus [15] = assay: Reduction in ADAMTS-4/ADAMTS-5-mediated aggrecan cleavage products in po dosed Lewis rat MIA model assessed as aggrecanase-cleaved fragments treatment starting from day 3 and single dose given on day 7 followed by animal sacrificed 4 hrs later by NITEGE sandwich ELISA assay; format: functional
Cytochrome P450 2C9 = Cytochrome P450 2C9 (Homo sapiens, UniProt P11712); assay: Inhibition of human CYP2C9; format: ADME
[16] = Clearance in Sprague-Dawley rat; format: ADME, organism-based; conditions: in vivo
[17] = Tmax in Sprague-Dawley rat at 10 mg/kg, po; format: ADME, organism-based; parameters: dose 10 mg/kg, route oral; conditions: in vivo
[18] = Half life in Sprague-Dawley rat at 10 mg/kg, po; format: ADME, organism-based; parameters: dose 10 mg/kg, route oral; conditions: in vivo

Disintegrin and metalloproteinase domain-containing protein 17, sequence (P78536 whole entry, the tested form may be a part): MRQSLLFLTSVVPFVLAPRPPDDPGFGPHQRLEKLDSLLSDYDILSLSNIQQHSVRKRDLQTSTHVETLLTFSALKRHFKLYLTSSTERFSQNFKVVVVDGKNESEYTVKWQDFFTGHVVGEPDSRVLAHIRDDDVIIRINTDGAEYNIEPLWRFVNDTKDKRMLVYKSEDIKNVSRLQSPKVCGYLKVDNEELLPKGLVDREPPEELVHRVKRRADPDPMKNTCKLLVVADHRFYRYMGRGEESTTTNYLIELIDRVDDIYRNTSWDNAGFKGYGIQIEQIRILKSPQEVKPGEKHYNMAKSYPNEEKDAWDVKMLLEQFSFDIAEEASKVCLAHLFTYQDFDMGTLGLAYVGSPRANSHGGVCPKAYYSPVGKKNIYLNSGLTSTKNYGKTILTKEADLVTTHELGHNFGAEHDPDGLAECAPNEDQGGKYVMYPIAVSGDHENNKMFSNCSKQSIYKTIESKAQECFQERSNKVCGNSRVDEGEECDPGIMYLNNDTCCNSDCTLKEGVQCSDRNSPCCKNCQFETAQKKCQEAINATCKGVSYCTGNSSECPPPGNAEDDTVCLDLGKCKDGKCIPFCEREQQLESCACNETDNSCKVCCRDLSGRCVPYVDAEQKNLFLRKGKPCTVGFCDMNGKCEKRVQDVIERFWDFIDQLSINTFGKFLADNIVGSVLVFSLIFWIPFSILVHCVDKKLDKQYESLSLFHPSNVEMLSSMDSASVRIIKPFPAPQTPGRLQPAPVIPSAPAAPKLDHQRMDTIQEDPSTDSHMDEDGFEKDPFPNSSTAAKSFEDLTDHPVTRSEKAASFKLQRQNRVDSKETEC
72 kDa type IV collagenase, sequence (P08253 whole entry): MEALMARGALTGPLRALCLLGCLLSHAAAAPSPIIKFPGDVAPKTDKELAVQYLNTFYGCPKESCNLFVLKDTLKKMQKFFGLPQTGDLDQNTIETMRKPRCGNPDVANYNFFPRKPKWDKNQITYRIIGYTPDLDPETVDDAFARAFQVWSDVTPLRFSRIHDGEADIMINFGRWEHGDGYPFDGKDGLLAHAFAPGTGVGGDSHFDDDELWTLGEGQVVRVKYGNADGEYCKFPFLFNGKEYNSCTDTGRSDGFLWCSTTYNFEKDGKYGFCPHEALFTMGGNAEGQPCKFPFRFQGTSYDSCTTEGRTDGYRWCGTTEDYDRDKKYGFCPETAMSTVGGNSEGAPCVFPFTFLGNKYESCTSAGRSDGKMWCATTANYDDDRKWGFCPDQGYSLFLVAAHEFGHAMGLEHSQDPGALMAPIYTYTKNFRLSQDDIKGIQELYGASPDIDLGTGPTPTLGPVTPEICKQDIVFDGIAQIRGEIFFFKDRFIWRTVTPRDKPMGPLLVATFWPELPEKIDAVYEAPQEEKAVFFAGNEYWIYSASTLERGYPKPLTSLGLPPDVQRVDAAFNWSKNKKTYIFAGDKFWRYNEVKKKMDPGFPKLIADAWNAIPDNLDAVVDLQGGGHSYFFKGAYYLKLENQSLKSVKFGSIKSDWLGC
Stromelysin-1, sequence (P08254 whole entry): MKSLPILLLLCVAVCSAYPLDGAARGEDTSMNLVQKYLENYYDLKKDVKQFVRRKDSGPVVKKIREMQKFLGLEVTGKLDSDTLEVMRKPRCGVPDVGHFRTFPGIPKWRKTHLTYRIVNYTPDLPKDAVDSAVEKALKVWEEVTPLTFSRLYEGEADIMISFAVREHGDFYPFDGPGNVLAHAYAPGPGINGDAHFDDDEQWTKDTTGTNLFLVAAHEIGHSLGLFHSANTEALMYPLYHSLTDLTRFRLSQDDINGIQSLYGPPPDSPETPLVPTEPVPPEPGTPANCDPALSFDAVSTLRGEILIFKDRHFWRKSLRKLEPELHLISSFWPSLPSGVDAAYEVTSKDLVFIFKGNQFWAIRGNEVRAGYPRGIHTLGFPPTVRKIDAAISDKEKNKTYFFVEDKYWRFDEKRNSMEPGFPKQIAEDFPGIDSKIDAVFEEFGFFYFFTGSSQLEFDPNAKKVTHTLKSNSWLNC
Cytochrome P450 2D6, sequence (P10635 whole entry, the tested form may be a part): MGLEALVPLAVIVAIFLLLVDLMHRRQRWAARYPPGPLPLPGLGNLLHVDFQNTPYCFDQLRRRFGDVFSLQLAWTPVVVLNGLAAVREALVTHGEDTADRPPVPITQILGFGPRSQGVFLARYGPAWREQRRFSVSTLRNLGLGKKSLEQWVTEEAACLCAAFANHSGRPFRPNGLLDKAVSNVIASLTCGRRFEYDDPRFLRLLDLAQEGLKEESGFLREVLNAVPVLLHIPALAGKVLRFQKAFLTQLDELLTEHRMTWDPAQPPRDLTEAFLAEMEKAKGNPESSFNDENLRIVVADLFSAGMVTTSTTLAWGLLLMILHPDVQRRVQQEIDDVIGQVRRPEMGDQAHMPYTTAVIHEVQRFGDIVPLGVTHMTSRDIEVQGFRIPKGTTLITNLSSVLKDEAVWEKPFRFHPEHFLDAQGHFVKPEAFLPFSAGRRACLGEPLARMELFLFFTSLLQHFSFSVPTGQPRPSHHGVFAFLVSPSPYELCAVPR
Cytochrome P450 2C9, sequence (P11712 whole entry): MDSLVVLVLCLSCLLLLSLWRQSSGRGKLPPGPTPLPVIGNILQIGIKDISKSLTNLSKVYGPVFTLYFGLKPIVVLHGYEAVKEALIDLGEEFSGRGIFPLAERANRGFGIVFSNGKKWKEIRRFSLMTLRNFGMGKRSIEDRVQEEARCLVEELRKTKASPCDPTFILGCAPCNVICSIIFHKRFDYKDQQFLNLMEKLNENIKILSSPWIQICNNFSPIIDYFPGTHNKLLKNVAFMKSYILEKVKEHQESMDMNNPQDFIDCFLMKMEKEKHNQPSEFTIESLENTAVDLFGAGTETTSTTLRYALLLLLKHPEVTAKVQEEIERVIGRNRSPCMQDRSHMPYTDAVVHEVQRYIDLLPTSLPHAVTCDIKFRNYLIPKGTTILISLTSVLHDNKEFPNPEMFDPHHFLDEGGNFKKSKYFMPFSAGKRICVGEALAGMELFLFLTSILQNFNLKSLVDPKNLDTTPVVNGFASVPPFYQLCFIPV
Cytochrome P450 3A4, sequence (P08684 whole entry): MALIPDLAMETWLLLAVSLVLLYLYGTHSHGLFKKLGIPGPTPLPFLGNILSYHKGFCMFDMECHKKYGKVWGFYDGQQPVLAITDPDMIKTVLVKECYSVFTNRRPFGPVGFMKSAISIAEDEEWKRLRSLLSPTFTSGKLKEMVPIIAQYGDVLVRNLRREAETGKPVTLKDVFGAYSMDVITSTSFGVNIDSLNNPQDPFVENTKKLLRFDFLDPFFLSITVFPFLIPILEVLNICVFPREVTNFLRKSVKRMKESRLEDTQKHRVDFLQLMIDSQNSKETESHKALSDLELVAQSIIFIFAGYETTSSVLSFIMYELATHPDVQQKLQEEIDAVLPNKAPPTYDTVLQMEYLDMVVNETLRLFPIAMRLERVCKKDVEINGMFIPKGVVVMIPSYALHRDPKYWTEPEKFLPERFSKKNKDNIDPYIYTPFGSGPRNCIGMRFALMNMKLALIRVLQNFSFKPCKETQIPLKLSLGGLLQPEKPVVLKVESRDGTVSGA

SMILES | pIC50 (Stromelysin-1) | pIC50 [1] | pIC50 (Collagenase 3) | concentration at 2 h [2] | concentration at 8 h [3] | pIC50 [4] | pIC50 [5] | pIC50 [6] | pIC50 [7] | pIC50 [8] | metabolised at 0.5 h [9] | Cmax [11] | AUC [12] | metabolised at 0.5 h [13] | bioavailability [14] | clearance [16] | Tmax [17] | half-life [18] | also measured
C[C@]1(CNC(=O)COc2ccc(Cl)cc2)NC(=O)NC1=O | 4.30 | 4.62 | 5.15 | 430 ng/mL | 50 ng/mL | 6.21 | 7.13 | < 4.30 | 6.46 | – | – | – | – | – | – | – | – | – | –
Cn1ccnc1[C@]1(CNC(=O)c2cc3cc(C(F)(F)F)ccc3o2)NC(=O)NC1=O | 4.16 | 4.96 | 4.52 | 1100 ng/mL | 90 ng/mL | 7.46 | 8.40 | 4.07 | 8.40 | 5.00 | 7% | 3200 ng/mL | 8500 ng·h/mL | < 5% | 25% | 4.8 mL/min/kg | 1.6 h | 4.3 h | inhibition (INH) (Cytochrome P450 3A4): < 5%; inhibition (Rattus norvegicus [10]): Dose-dependent effect; inhibition (INH) (Cytochrome P450 2D6): < 5%; ED50 (Rattus norvegicus [15]): 30 mg/kg; inhibition (INH) (Cytochrome P450 2C9): < 5%
Cn1nccc1[C@]1(CNC(=O)c2cc3cc(Cl)ccc3o2)NC(=O)NC1=O | 4.19 | 5.15 | 5.33 | – | – | 6.28 | 7.66 | 5.07 | 7.72 | – | – | – | – | – | – | – | – | – | –
C[C@]1(CNC(=O)c2cc3cc(Cl)ccc3o2)NC(=O)NC1=O (racemic) | – | – | – | – | – | 5.62 | 6.96 | – | 6.82 | – | – | – | – | – | – | – | – | – | –
O=C1NC(=O)[C@](CNC(=O)c2cc3cc(Cl)ccc3o2)(c2ccccc2)N1 | 5.52 | 5.68 | 6.14 | < 200 ng/mL | – | 6.38 | 7.92 | 5.46 | 7.66 | 5.27 | – | – | – | – | – | – | – | – | –
Cc1cccnc1[C@]1(CNC(=O)c2cc3cc(Cl)ccc3o2)NC(=O)NC1=O (racemic) | 4.70 | 5.21 | 5.51 | – | – | 5.77 | 7.77 | 4.74 | 7.72 | – | – | – | – | – | – | – | – | – | –
Cn1ccnc1[C@]1(CNC(=O)c2cc3cc(Cl)ccc3o2)NC(=O)NC1=O | 4.42 | 5.12 | 5.38 | 2200 ng/mL | 80 ng/mL | 6.96 | 8.30 | < 4.00 | 8.05 | – | 13% | 4100 ng/mL | 8100 ng·h/mL | 17% | 58% | 13 mL/min/kg | 0.33 h | 4.2 h | inhibition (INH) (Cytochrome P450 3A4): < 5%; inhibition (INH) (Cytochrome P450 2D6): < 5%; ED50 (Rattus norvegicus [15]): 75 mg/kg; inhibition (INH) (Cytochrome P450 2C9): < 5%
O=C1NC(=O)[C@](CNC(=O)c2cc3cc(Cl)ccc3o2)(c2nccs2)N1 | – | – | – | 4300 ng/mL | 1300 ng/mL | – | – | – | – | – | 16% | 6900 ng/mL | 28000 ng·h/mL | 16% | 72% | 4 mL/min/kg | 0.33 h | 3.2 h | –
C[C@@]1(O)CCCN(S(=O)(=O)c2ccc(OCc3ccc(F)cc3Cl)cc2)[C@H]1C(=O)NO | 8.52 | 8.30 | 9.00 | 1900 ng/mL | 840 ng/mL | 7.74 | 9.00 | 6.82 | 9.00 | 8.15 | – | – | – | – | – | – | – | – | –
